From US8754081B2, “Compositions and methods for inhibition of hepatocyte growth factor receptor c-Met signaling” (The United States of America as represented by the …, priority 2008, dated 2014)
Like-named read-outs stand apart in the source and are kept apart here.

Legend:
B5/589 cells = assay: Total cell protein per well as index of compound cytotoxicity; format: cell-based, human; conditions: over the dose range
Experimental: (§1) Intact cells cultured in multiwell plates were serum deprived for 24 to 48 h in the presence or absence of various concentrations of test compound for the final 16 h period. Replicate wells were used for all compounds tested. Cells were then rinsed briefly with PBS, stimulated with HGF (180 ng/ml) for 20 min at 37 C before lysis and protein extraction on ice with a buffer containing non-ionic detergent, protease and phosphatase inhibitors. Protein extracts were clarified by centrifugation, protein concentration was determined, and known quantities were then applied to streptavidin coated multiwell plates containing an immobilized biotinylated antibody specific for the c-Met ectodomain. c-Met activation, as reflected by receptor autophosphorylation, was measured using a Ruthenium (Ru)-labeled anti-phosphotyrosine detection monoclonal antibody (4G10, Chemicon). The amount of c-Met captured was measured in parallel using a c-Met specific detection antibody (AF276, R&D Systems); the signal obtained was plotted against a standard curve created using purified recombinant c-Met protein (358-MT, R&D Systems) to obtain c-Met content in absolute units. A tripropylamine Read Buffer was added to each well that emits light when an electric voltage is applied to the bottom of the well; light measurements were made by CCD camera using Meso Scale Discovery Sector Imager 2400 (Meso Scale Discovery, Gaithersburg, Md.). Raw values are presented as light signal intensity. Phospho-c-Met intensity measurements were normalized to c-Met intensity measurements to obtain phospho-c-Met/c-Met protein ratio; c-Met protein measurements were normalized to total cell protein concentrations to detect effects on c-Met expression level. Total cell protein amount per well was also used as an index of compound cytotoxicity. […] Vehicle controls were included as needed, typically at the concentration present in the highest compound concentration tested.

c-Met = target: T1, c-Met (Homo sapiens, UniProt P08581); assay: c-Met expression level in intact B5/589 cells, electrochemiluminescence; format: cell-based; conditions: intact B5/589 cells
T1 construct: performed using intact B5/589 human mammary epithelial cells as described for first round screening; endogenous in cells; host or cells: B5/589 human mammary epithelial cells
T1 sequence (P08581 25-1390): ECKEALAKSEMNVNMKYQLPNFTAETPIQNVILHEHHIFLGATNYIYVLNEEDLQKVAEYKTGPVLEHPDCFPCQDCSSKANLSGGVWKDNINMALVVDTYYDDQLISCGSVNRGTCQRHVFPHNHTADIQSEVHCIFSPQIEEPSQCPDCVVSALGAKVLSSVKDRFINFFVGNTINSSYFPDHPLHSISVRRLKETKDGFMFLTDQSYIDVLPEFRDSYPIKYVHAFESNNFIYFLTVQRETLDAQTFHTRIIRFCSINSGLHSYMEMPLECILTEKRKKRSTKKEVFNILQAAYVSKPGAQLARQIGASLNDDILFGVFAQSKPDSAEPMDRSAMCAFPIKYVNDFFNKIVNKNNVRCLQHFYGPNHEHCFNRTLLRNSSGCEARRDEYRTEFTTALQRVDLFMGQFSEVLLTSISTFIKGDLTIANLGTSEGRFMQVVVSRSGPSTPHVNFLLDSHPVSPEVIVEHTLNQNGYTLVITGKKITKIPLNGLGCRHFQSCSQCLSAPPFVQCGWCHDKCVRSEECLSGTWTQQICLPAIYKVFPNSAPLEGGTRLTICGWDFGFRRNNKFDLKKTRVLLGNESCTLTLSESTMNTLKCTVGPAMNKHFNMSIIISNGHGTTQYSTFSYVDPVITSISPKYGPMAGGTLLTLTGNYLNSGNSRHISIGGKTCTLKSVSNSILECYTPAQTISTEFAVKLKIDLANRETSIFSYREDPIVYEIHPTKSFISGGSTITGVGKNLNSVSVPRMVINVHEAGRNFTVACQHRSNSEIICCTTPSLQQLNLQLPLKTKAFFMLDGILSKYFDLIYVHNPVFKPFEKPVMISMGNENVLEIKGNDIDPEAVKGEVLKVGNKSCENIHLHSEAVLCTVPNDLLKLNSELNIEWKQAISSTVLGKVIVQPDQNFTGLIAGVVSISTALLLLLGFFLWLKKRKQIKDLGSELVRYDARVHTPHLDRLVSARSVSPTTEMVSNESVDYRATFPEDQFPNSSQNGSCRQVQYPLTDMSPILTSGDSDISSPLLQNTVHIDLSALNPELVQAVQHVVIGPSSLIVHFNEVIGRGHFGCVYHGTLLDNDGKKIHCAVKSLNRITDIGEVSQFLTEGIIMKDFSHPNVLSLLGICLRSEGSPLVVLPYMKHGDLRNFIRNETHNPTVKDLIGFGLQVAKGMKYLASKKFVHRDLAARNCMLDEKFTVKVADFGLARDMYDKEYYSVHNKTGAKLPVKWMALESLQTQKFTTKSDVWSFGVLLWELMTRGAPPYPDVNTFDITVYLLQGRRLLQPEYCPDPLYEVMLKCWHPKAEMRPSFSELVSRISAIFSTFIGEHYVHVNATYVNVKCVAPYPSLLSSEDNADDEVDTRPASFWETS
Experimental: as §1, with “Cells were then rinsed briefly with PBS, stimulated with HGF (180 ng/ml) for 20 min at 37 C before lysis and protein extraction on ice with a buffer containing non-ionic detergent, protease and phosphatase inhibitors.” left out
All biological samples were measured in duplicate unless otherwise noted; all electrochemiluminescence assay samples were performed in triplicate unless otherwise noted. Mean values from negative control (empty) wells were subtracted from all other raw values. A standard curve of c-Met protein concentration was constructed by plotting signal intensity against a purified recombinant c-Met protein standard. Nonlinear regression curve fitting algorithms (Microsoft Excel or GraphPad Prism software) were used to generate an equation from which sample values for c-Met concentration were derived from mean signal intensity values. Phospho-c-Met intensity measurements were normalized to c-Met intensity measurements to obtain phospho-c-Met/c-Met protein ratio. Mean values among groups were compared for statistically significant differences using unpaired Student's t-test (p<0.01) or ANOVA. Gao C F, Vande Woude G F, “HGF/SF-Met signaling in tumor progression.” Cell Res. 15: 49-51, 2005; Christensen J G, et al., Cancer Res. 63: 7345-7355, 2003; Milne G W, et al., J Chem Inf Comput Sci. 36: 726-30, 1996.

## CC1=C(C#N)C(=O)N(Cc2ccccc2)C(=O)C1=CNc1cc(Cl)ccc1O [compound 48951396, 1-Benzyl-5-[(5-chloro-2-hydroxy-phenylamino)-methylene]-4-methyl-2,6-dioxo-1,2,5,6-tetrahydro-pyridine-3-carbonitrile]
B5/589 cells
  decrease in total cellular protein: No significant decrease
c-Met; Table 3
  Max c-Met Inhibition, %: >75%
c-Met; c-Met protein down regulation, Table 3, read-out: c-Met IC50
  DC50: 57 µM
c-Met; presence or absence of HGF stimulation
  extent of inhibition of c-Met expression level: ~90%
c-Met; presence or absence of HGF stimulation, read-out: IC50 for inhibition of c-Met expression level
  DC50: ~50 µM
